Drawing on US11014941B2, “Pyrrolopyrimidine derivatives useful as inhibitors of influenza virus replication” (priority 2017, dated 2021), this text covers IC50 for 25 compounds.

For orientation: IC50 means the concentration at which inhibition is half-maximal.

Some results are limits rather than exact numbers.

Sequence of Influenza PB2 (P03428 whole entry, looked up): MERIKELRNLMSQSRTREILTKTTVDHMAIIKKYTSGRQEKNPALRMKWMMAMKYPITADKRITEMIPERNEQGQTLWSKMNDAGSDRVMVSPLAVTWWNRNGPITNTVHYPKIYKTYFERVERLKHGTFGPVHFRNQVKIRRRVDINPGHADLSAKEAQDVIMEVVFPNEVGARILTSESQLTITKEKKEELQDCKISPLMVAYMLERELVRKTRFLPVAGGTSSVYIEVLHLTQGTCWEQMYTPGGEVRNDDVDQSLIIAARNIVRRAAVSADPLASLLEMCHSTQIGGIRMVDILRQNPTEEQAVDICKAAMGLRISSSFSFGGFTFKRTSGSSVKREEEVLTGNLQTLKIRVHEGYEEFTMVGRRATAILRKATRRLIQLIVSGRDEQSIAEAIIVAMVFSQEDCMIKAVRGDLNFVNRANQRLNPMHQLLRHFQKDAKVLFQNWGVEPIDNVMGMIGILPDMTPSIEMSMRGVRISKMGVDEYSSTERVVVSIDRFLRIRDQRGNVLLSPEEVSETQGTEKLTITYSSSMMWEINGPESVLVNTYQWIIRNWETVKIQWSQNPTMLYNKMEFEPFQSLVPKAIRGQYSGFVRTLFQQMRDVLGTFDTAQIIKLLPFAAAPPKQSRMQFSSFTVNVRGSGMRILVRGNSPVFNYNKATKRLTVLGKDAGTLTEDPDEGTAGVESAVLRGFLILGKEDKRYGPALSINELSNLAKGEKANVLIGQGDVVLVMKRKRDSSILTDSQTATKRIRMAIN

This experiment concerns the target Influenza PB2 (Influenza A virus, UniProt P03428). Put plainly: biochemical. Format: binding. The settings on record: read-out: Influenza PB2 affinity, IC50.
Take `CCOCCOCCOCCNC(=O)[C@@H]1CCCC[C@@H]1n1ccc2cnc(-c3c[nH]c4ncc(F)cc34)nc21` [Compound B30]: the IC50 lay within 10 to 100 µM.
With `CCOCCOCCOCCNC(=O)N1CCC[C@H](n2ccc3cnc(-c4c[nH]c5ncc(F)cc45)nc32)C1` [Compound B31], the 50% inhibitory concentration (IC50) was 10 to 100 µM.
As for `CCOCCOCCOCC(=O)N1CCC[C@H](n2ccc3cnc(-c4c[nH]c5ncc(F)cc45)nc32)C1` [Compound B32], the IC50 lay within 10 to 100 µM.
Next, `CCCCCOCCOCCNC(=O)N1CCC[C@H](n2ccc3cnc(-c4c[nH]c5ncc(F)cc45)nc32)C1` [Compound B33]: 10 to 100 µM.
For `CCCCCOCCCCCNC(=O)N1CCC[C@H](n2ccc3cnc(-c4c[nH]c5ncc(F)cc45)nc32)C1` [Compound B34], the IC50 was > 100 µM.
Turning to `CCOCCCCCOCCNC(=O)N1CCC[C@H](n2ccc3cnc(-c4c[nH]c5ncc(F)cc45)nc32)C1` [Compound B35], the IC50 fell in the range of 10 to 100 µM.
On to `CCCCCOCCOCCNC(=O)N[C@H]1CCC[C@@H](n2ccc3cnc(-c4c[nH]c5ncc(F)cc45)nc32)C1` [Compound B36], for which the IC50 was > 100 µM.
As to `CCOCCOCCCCCNC(=O)N1CCC[C@H](n2ccc3cnc(-c4c[nH]c5ncc(F)cc45)nc32)C1` [Compound B37], the IC50 is > 100 µM.
In the case of `CCOCCCCCOCCNC(=O)N[C@@H]1CCC[C@H](n2ccc3cnc(-c4c[nH]c5ncc(F)cc45)nc32)C1` [Compound B38], the half-inhibitory concentration (IC50) is > 100 µM.
On to `CCCCCOCCOCC(=O)N[C@@H]1CCC[C@H](n2ccc3cnc(-c4c[nH]c5ncc(F)cc45)nc32)C1` [Compound B39], for which the half-maximal inhibitory concentration (IC50) lay in the range of 10 to 100 µM.
For the compound `CCOCCOCCCCCNC(=O)N[C@@H]1CCC[C@H](n2ccc3cnc(-c4c[nH]c5ncc(F)cc45)nc32)C1` [Compound B40], the concentration for half-maximal inhibition (IC50) was > 100 µM.
Turning to `CCOCCCCCOCCN(C)C(=O)N[C@@H]1CCC[C@H](n2ccc3cnc(-c4c[nH]c5ncc(F)cc45)nc32)C1` [Compound B41], the IC50 is 10 to 100 µM.
As to `CCCCCOCCOCCN(C)C(=O)N[C@@H]1CCC[C@H](n2ccc3cnc(-c4c[nH]c5ncc(F)cc45)nc32)C1` [Compound B42], the concentration for half-maximal inhibition (IC50) was > 100 µM.
To `CCCCCOCCCCCN(C)C(=O)N[C@@H]1CCC[C@H](n2ccc3cnc(-c4c[nH]c5ncc(F)cc45)nc32)C1` [Compound B44] belongs > 100 µM; to `CCOCCOCCCCCN(C)C(=O)N[C@@H]1CCC[C@H](n2ccc3cnc(-c4c[nH]c5ncc(F)cc45)nc32)C1` [Compound B45], 10 to 100 µM; to `CCOCCOCCOCCNC(=O)[C@H]1CCC[C@@H](n2ccc3cnc(-c4c[nH]c5ncc(F)cc45)nc32)C1` [Compound B46], 10 to 100 µM.
Next, `CCOCCOCCOCCNC(=O)[C@H]1CCC[C@H](n2ccc3cnc(-c4c[nH]c5ncc(F)cc45)nc32)C1` [Compound B47]: > 100 µM; `O=C(O)[C@@H]1CCC[C@H](n2ccc3cnc(-c4c[nH]c5ncc(F)cc45)nc32)C1` [Compound B48]: 1 to 10 µM.
To `CCCCCOCCCCCNC(=O)N[C@H]1CCC[C@@H](n2ccc3cnc(-c4c[nH]c5ncc(F)cc45)nc32)C1` [Compound B49] belongs > 100 µM.
Regarding `CCCCCOCCCCC(=O)N[C@H]1CCC[C@@H](n2ccc3cnc(-c4c[nH]c5ncc(F)cc45)nc32)C1` [Compound B50], the IC50 was > 100 µM.
Next, `CCOC(=O)C1=C(N2CCc3cnc(-c4c[nH]c5ncc(F)cc45)nc32)CCCC1` [Compound B51]: > 100 µM.
To `CCOCCOCCCCC(=O)N[C@H]1CCC[C@@H](n2ccc3cnc(-c4c[nH]c5ncc(F)cc45)nc32)C1` [Compound B52] belongs > 100 µM; to `O=C(O)C1=C(N2CCc3cnc(-c4c[nH]c5ncc(F)cc45)nc32)CCCC1` [Compound B53], 1 to 10 µM; to `CC(=O)N1CCCC(Cn2cc(F)c3cnc(-c4c[nH]c5ncc(F)cc45)nc32)C1` (stereo not shown) [Compound B54], 1 to 10 µM.
For `Fc1cnc2[nH]cc(-c3ncc4c(F)cn(CC5CCNCC5)c4n3)c2c1` [Compound B55], the IC50 is > 100 µM.
